Test results as given in patent US4514330A, “Carbon-7-substituted atinomycin D analogue” (Trustees of Boston University, priority 1983, dated 1985).
Values after ≈ are worked out from the molar mass of the structure shown. Like-named read-outs stand apart in the source and are kept apart here.

Columns and labels:
DNA [1] = details: known analogues; cited from earlier work
DNA [2] = experiment: Thermal denaturation of DNA (ΔTm), stabilization of DNA helical structure on drug binding; parameters: species or system calf thymus; details: for Tm (ΔTm = Tm of DNA-drug complex minus Tm of DNA): drug 1.4 × 10^-4 M, DNA (P) 1.4 × 10^-3 M, 0.01 M phosphate buffer pH 7.0, EDTA, 5% dimethyl sulfoxide
Method: Thermal denaturation studies were carried out according to the procedure described in J. Med. Chem., Vol. 24, p. 1052 (1981). The ΔTm values in Table II give a measure of stabilization of DNA helical structure as a consequence of drug binding.
^a ΔTm = m of DNAdrug complex minus m of DNA.
Concentraiton of drug, 1.4 × 10^-4 M; of DNA (P), 1.4 ×
10^-3 M in 0.01 M phosphate buffer (pH 7.0), 5 × 10^-3 M in
EDTA and 5% dimethyl sulfoxide.
^d Highest dose tested. These values are derived at high temperatur
(67°-75° C.) and may not always correlate with the results
of other DNA-binding studies (e.g., absorptiometric or circular dichroic).
Melting points were obtained with a Thomas-Hoover melting point apparatus at a heating rate of 2° C./min. Column chromatography was accomplished with silica gel powder (Baker No. 3405, 60-20 mesh) or acid alumina (Woelm grade 1). Limited gel-filtration work was done on Sephadex LH-20, particle size 25-100 μm (Pharmacia Fine Chemicals). Thin-layer chromatography was performed on silica gel plates (E. M. Laboratories, Inc.). Solvent systems used were (A) butanol-formic acid-H2 O (75:13:12), (B) EtOAc-acetone (3:1), and (C) Cifferri, the organic phase of the mixture EtOAc-MeOH-H2 O (20:1:20). High-performance liquid chromatography was carried out on a Varian Model 5020 gradient liquid chromatograph equipped with CD-111L chromatography data system and fitted with Varian reversed-phase C18 column with isocratic solvent systems, CH3 -CN-5 mM NH4 OAc buffer, pH 6.4 (68:32 or 62:38), pressure 80-140 atm, flow rate 1.5 mL/min, with UV-visible variable and fixed wavelength dual detectors at 254 and 466 nm. Spectra were determined on the following instruments: IR spectra were obtained with a Perkin-Elmer Model 237 Infra Cord with KBr micropellets or chloroform solutions; UV-visible spectra were obtained on a Gilford 250 spectrophotometer, which, with the addition of a base-line reference compensator (Analog Multiplexer 6064) and thermoprogrammer, auto four cell programmer and thermoelectric cell holder 2577, was used to obtain thermal denaturation curves; NMR spectra were obtained on a JOEL FQ-90-90MHZ spectrometer equipped with Fourier transform; and CD spectra were obtained on a Cary 61 spectrophotometer. All elemental analyses were within ±0.4% of the theoretical values. Actinomycin D, batch no. NCS 3053, lot L554651-0-10, was provided by Natural Products Branch, National Cancer Institute, Silver Spring, Md. Calf thymus DNA type 1 was purchased from Sigma Chemical Co.

[3] = tested on: human lymphoblastic leukemic cells (CCRF-CEM); experiment: In vitro growth-inhibitory activity against human lymphoblastic leukemic cells (CCRF-CEM) in log phase; assay type: cell-based; details: for IC50: Homo sapiens
Method: ^b Using human lymohoblastic leukemia cells in logplastic growth.
Compounds were dissolved in Me2 So medium, final growth medium

calf thymus DNA = experiment: DNA binding by visible absorption and CD spectra of DNA (P)-drug complex; details: mole ratio DNA (P)/analogue = 10:1; 3b, 4b and 5b compared; 1.0×10^-5 M, pH 7
Excerpt: In FIG. 1, absorption (top) and circular dichroism (bottom) spectra in 0.01 M phosphate buffer (pH7) containing EDTA (10^-5 M) and Me2 SO (5%): 3b (...), 4b (---), 5b (--). Concentration of drug in each case was 1.0×10^-5 M. In this respect, they are almost indistinguishable from the known analogue 7-methoxyactinomycin D (5b), whose structure and physical properties we have previously reported. The absorption spectra of all these analogues in aqueous buffer are also almost superimposable. […] The absorption spectrum of the analogues above 240 nm is mainly due to the electronic configuration of the tricyclic chromophore. The CD spectrum in the same wavelength region is an indicator of peptide conformation in actinomycin analogues, because it is the peptide lactone ring that confers optical activity on the nearly planar chromophore. The nature of the CD spectra (3b, 4b and 5b) asserts that in these analogues there is an identical relationship between the chromophores and peptide lactones. This relationship is very important, because during binding to DNA, AMD and some analogues are known to rely on the cooperative role between the chromophore and the peptide lactones for their highly specific DNA-binding property.
Any change in the configurations of the peptide lactones on binding to DNA is generally expressed in the CD spectra of the analogue-DNA complexes. […] The changes in the visible absorption spectra of 3b, 4b and 5b and also their CD spectra observed after adding calf thymus DNA [mole ratio of DNA (P)/analogue=10:1] are identical (FIG. 2). In FIG. 2, the absorption (top) and CD spectra of the DNA (P)-drug complex (ratio 10:1). Concentrations, buffer and line types are as in FIG. 1.

normal CDF1 male mice = experiment: Maximum tolerated dose (LD10) in normal, tumor-free CDF1 male mice; assay type: in vivo; details: for MTD (maximum tolerated dose, lethal for 10% of normal mice; = LD10): deaths during 21 days
Method: ^c MTD (maximum tolerated dose) is the lethal dose
(milligrams/kilogram) for 10% normal CDF1 male mice (18-23 g);
were calculated from a plot of log dose vs. percent mortality. Average of
two to three experiments.
Biological Experiments. Determination of LD10 Values. Tumor-free CDF1 male mice weighing 18-23 g were given a broad range of doses of drugs in 10% dimethyl sulfoxide-saline on either days 1, 5 and 9 or on 4 successive days. Drugs were administered intraperitoneally (ip).
The maximum tolerated doses of AMD and analogues that caused deaths in only 10% of the tested animals in 21 days were recorded as MTD. The results are an average of two experiments in each. The MTD values obtained following schedules q4d 1, 5, 9 (three injections) and qd 1-4 (four injections) are recorded in Table IV. These doses are the same as LD10 (lethal dose of 10% of tumor-free animals in 21 days).

P-388 leukemia = experiment: In vivo antitumor activity against P-388 lymphocytic leukemia in CDF1 mice; details: for % ILS (percent increase in life span) / MST (median survival time) / cure (over 55 day survivors): days 1, 5, 9; for minimal effective dose: Mus musculus, P388, ip, read-out: MED (minimum effective dose, 40% increase in life span over control)
Method: Studies on in vivo activity of AMD and AMD analogues were carried out with P-388 lymphocytic leukemia in CDF1 hybrid mice. The drugs were administered either daily for 4 successive days (qd 1-4) or on days 1, 5 and 9 (q4d 1, 5, 9) beginning 1 day after tumor implantation.
^a Male CDF1 (18-23 g) mice were inoculated intraperitoneally
(ip) with 10^6 P388 cells on day 0. Drugs were administered, also ip,
in 10% dimethyl sulfoxidesaline on days 1, 5 and 9. Test solutions were
kept at 0-4° C., protected from light, and the stability and
homogeneity were checked periodically by TLC and HPLC.
^b MST = median survival time.
^c % ILS = percent increase in life span.
^d Over 55 day survivors. Average of three experiments. The
^a Drugs administed ip once daily either for 4 successive days (qd
1-4) or on days 1, 5 and 9 (q4d 1, 5 9), starting 1 day after tumor
^b MED (minimum effective dose) is the dose (milligrams/kilogram)
providing an increase in life span of 40% over control in P388

DNA [4] = experiment: DNA-binding mode, covalent and noncovalent (statements)
[5] = three injections ip, q4d 1, 5, 9

Compound: Cc1c2oc3c(C)c([N+](=O)[O-])cc(C(=O)N[C@@H]4C(=O)N[C@H](C(C)C)C(=O)N5CCC[C@H]5C(=O)N(C)CC(=O)N(C)[C@@H](C(C)C)C(=O)O[C@@H]4C)c3nc-2c(C(=O)N[C@@H]2C(=O)N[C@H](C(C)C)C(=O)N3CCC[C@H]3C(=O)N(C)CC(=O)N(C)[C@@H](C(C)C)C(=O)O[C@@H]2C)c(N)c1=O [Compound 7-nitro-, 7-nitro-]
- mode of DNA binding, same way as AMD (DNA [1]): by intercalation of the chromophore and concomitant hydrogen and hydrophobic interactions of the peptide lactones

Compound: CCN(CC)C(=O)c1c2nc3c(C(=O)N(CC)CC)cc(OCC4CO4)c(C)c3oc-2c(C)c(=O)c1N (stereo not drawn) [Compound 3a]
- Tm (ΔTm = Tm of DNA-drug complex minus Tm of DNA) (DNA [2]): 0 °C
- fold less toxic compared to AMD and its analogues [3]: more than 1000 fold
- IC50 ([3]; read-out: ID50 (the source's name)): 9 µg/mL (≈ 17.6 µM)

Compound: COc1cc(C(=O)N[C@@H]2C(=O)N[C@H](C(C)C)C(=O)N3CCC[C@H]3C(=O)N(C)CC(=O)N(C)[C@@H](C(C)C)C(=O)O[C@@H]2C)c2nc3c(C(=O)N[C@@H]4C(=O)N[C@H](C(C)C)C(=O)N5CCC[C@H]5C(=O)N(C)CC(=O)N(C)[C@@H](C(C)C)C(=O)O[C@@H]4C)c(N)c(=O)c(C)c-3oc2c1C [Compound 5b, 7-methoxyactinomycin D, reference compound]
- changes in visible absorption and CD spectra after adding calf thymus DNA (calf thymus DNA): identical

Compound: Cc1c2oc3c(C)c(O)cc(C(=O)N[C@@H]4C(=O)N[C@H](C(C)C)C(=O)N5CCC[C@H]5C(=O)N(C)CC(=O)N(C)[C@@H](C(C)C)C(=O)O[C@@H]4C)c3nc-2c(C(=O)N[C@@H]2C(=O)N[C@H](C(C)C)C(=O)N3CCC[C@H]3C(=O)N(C)CC(=O)N(C)[C@@H](C(C)C)C(=O)O[C@@H]2C)c(N)c1=O [Compound 2b, 7-hydroxyactinomycin D, reference compound]
- MTD (maximum tolerated dose, lethal for 10% of normal mice; = LD10) (normal CDF1 male mice; four injections ip, qd 1-4): 2.0 milligrams/kilogram
- MTD dose as multiple of the MTD dose for AMD (normal CDF1 male mice; q4d 1, 5, 9 schedule): 17 fold
- fold less toxic than AMD (normal CDF1 male mice; qd 1-4 schedule): 13 fold
- MTD (maximum tolerated dose, lethal for 10% of normal mice; = LD10) (normal CDF1 male mice; [5]): 4.2 milligrams/kilogram
- Tm (ΔTm = Tm of DNA-drug complex minus Tm of DNA) (DNA [2]): 6.7 ± 0.15 °C
- DNA melting profile / ΔTm character of the DNA complex (DNA [2]; thermal denaturation, words): sharp and smooth
- % ILS (percent increase in life span) (P-388 leukemia; 0.15 mg/kg ip): 10%
- MST (median survival time) (P-388 leukemia; 0.15 mg/kg ip): 12 days
- cure (over 55 day survivors) (P-388 leukemia; 0.15 mg/kg ip): 0/7
- % ILS (percent increase in life span) (P-388 leukemia; 0.30 mg/kg ip): 55%
- MST (median survival time) (P-388 leukemia; 0.30 mg/kg ip): 17 days
- cure (over 55 day survivors) (P-388 leukemia; 0.30 mg/kg ip): 0/7
- % ILS (percent increase in life span) (P-388 leukemia; 0.60 mg/kg ip): 89%
- MST (median survival time) (P-388 leukemia; 0.60 mg/kg ip): 21 days
- cure (over 55 day survivors) (P-388 leukemia; 0.60 mg/kg ip): 0/7
- % ILS (percent increase in life span) (P-388 leukemia; 1.20 mg/kg ip): 127%
- MST (median survival time) (P-388 leukemia; 1.20 mg/kg ip): 25 days
- cure (over 55 day survivors) (P-388 leukemia; 1.20 mg/kg ip): 0/7
- % ILS (percent increase in life span) (P-388 leukemia; 1.80 mg/kg ip): 136%
- MST (median survival time) (P-388 leukemia; 1.80 mg/kg ip): 26 days
- cure (over 55 day survivors) (P-388 leukemia; 1.80 mg/kg ip): 0/7
- % ILS (percent increase in life span) (P-388 leukemia; 3.00 mg/kg ip): 37%
- MST (median survival time) (P-388 leukemia; 3.00 mg/kg ip): 15 days
- cure (over 55 day survivors) (P-388 leukemia; 3.00 mg/kg ip): 0/7
- minimal effective dose (P-388 leukemia; four injections ip, qd 1-4): 0.2 mg/kg
- minimal effective dose (P-388 leukemia; [5]): 0.275 mg/kg
- therapeutic index: MTD/MED (P-388 leukemia; four injections ip, qd 1-4): 10
- activity in respect of % ILS, 1b versus 2b (P-388 leukemia; ip, q4d 1, 5, 9): approximately equiactive
- dose higher than AMD needed for equiactivity (P-388 leukemia; ip, q4d 1, 5, 9): > 14 fold
- therapeutic index: MTD/MED (P-388 leukemia; [5]): 15
- IC50 ([3]; final growth medium contained 1% Me2SO, log phase, read-out: ID50 (in vitro growth inhibition, CCRF-CEM)): 0.95 µg/mL (≈ 0.747 µM)

Compound: CCN(CC)C(=O)c1c2nc3c(C(=O)N(CC)CC)cc(O)c(C)c3oc-2c(C)c(=O)c1N [Compound 2a]
- Tm (ΔTm = Tm of DNA-drug complex minus Tm of DNA) (DNA [2]): 0 °C

Compound: CCN(CC)C(=O)c1c2nc3c(C(=O)N(CC)CC)ccc(C)c3oc-2c(C)c(=O)c1N [Compound 1a, reference compound]
- Tm (ΔTm = Tm of DNA-drug complex minus Tm of DNA) (DNA [2]): 0 °C
- DNA-binding related activity (DNA [4]): no DNA-binding related activity

Compound: CCN(CC)C(=O)c1c2nc3c(C(=O)N(CC)CC)cc(OCC(O)CO)c(C)c3oc-2c(C)c(=O)c1N (stereo not drawn) [Compound 4a]
- Tm (ΔTm = Tm of DNA-drug complex minus Tm of DNA) (DNA [2]): 0 °C
- fold less toxic compared to AMD and its analogues [3]: more than 1000 fold

Compound: Cc1c2oc3c(C)c(N)cc(C(=O)N[C@@H]4C(=O)N[C@H](C(C)C)C(=O)N5CCC[C@H]5C(=O)N(C)CC(=O)N(C)[C@@H](C(C)C)C(=O)O[C@@H]4C)c3nc-2c(C(=O)N[C@@H]2C(=O)N[C@H](C(C)C)C(=O)N3CCC[C@H]3C(=O)N(C)CC(=O)N(C)[C@@H](C(C)C)C(=O)O[C@@H]2C)c(N)c1=O [7-aminoactinomycin D]
- mode of DNA binding, same way as AMD (DNA [1]): by intercalation of the chromophore and concomitant hydrogen and hydrophobic interactions of the peptide lactones
